Test results from US20250230193A1, “CYCLIC COMPOUND HAVING SELECTIVE KRAS INHIBITORY EFFECT ON HRAS AND NRAS” (CHUGAI SEIYAKU KABUSHIKI KAISHA, priority 2022, published 2025).

How the values were obtained:
[1] = target: GDP-bound KRAS wild-type protein (Homo sapiens, UniProt P01116); experiment: Binding to KRAS by surface plasmon resonance (SPR), Single Cycle Kinetics; conditions: SPR, Single Cycle Kinetics; GDP-bound KRAS wild-type protein
[2] = target: GDP-bound NRAS wild-type protein (Homo sapiens, UniProt P01111); experiment: Binding to NRAS by surface plasmon resonance (SPR), Single Cycle Kinetics; conditions: SPR; KD ratio class
[3] = target: GDP-bound HRAS wild-type protein (Homo sapiens, UniProt P01112); experiment: Binding to HRAS by surface plasmon resonance (SPR), Single Cycle Kinetics; conditions: SPR; KD ratio class
[4] = system: human lung cancer strain NCI-H441; conditions: read-out: NCI-H441 IC50; NCI-H441 cells, 4 days, CellTiter-Glo

GDP-bound NRAS wild-type protein, sequence (P01111 whole entry): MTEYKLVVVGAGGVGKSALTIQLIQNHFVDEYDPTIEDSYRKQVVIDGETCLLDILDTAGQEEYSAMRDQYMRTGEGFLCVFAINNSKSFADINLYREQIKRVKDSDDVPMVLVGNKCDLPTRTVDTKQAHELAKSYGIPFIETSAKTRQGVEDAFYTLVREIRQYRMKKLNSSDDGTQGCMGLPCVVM
GDP-bound HRAS wild-type protein, sequence (P01112 whole entry): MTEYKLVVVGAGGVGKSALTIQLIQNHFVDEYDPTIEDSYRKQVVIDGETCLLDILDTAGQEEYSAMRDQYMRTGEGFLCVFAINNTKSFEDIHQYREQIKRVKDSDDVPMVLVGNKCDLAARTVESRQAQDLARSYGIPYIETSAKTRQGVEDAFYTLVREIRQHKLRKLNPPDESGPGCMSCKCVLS

| Kd [1] [nM] | IC50 [4] [nM] | SMILES | NRAS/KRAS (ratio of KD value for GDP-bound NRAS wild-type protein to KD value for KRAS) [2] | HRAS/KRAS (ratio of KD value for GDP-bound HRAS wild-type protein to KD value for KRAS) [3] |
| --- | --- | --- | --- | --- |
| 0.12 | 28.9 | CCO[C@@H]1C[C@H]2C(=O)NC3(CCC3)C(=O)N(C)[C@@H](C3CCCC3)C(=O)N(C)[C@H](C(=O)N(C)C)CC(=O)N(C)[C@@H](CC3CC3)C(=O)N[C@@H]([C@@H](C)CC)C(=O)N(C)CC(=O)N(C)[C@H]3C/C=C\CCN(C3=O)[C@@H](CC3CCC(F)(F)CC3)C(=O)N(C)CC(=O)N[C@@H](CCc3cc(F)c(C(F)(F)F)c(F)c3)C(=O)N2C1 [PP1447] | A (a compound having 10 or more and less than 20 is denoted as A) | A (a compound having 10 or more and less than 20 is denoted as A) |
| 0.14 | 50.1 | CCC[C@H]1C(=O)N[C@@H]([C@@H](C)CC)C(=O)N(C)CC(=O)N(C)[C@H]2C/C=C\CCN(C2=O)[C@@H](CC2CCC(F)(F)CC2)C(=O)N(C)CC(=O)N[C@@H](CCc2cc(F)c(C(F)(F)F)c(F)c2)C(=O)N2C[C@H](OCC)C[C@H]2C(=O)NC2(CCC2)C(=O)N(C)[C@@H](C2CCCC2)C(=O)N(C)[C@H](C(=O)N(C)C)CC(=O)N1C [PP1450] | A (a compound having 10 or more and less than 20 is denoted as A) | A (a compound having 10 or more and less than 20 is denoted as A) |
| 0.096 | 15.2 | C=CC[C@H]1C(=O)N[C@@H]([C@@H](C)CC)C(=O)N(C)CC(=O)N(C)[C@H]2C/C=C\CCN(C2=O)[C@@H](CC2CCC(F)(F)CC2)C(=O)N(C)CC(=O)N[C@@H](CCc2cc(F)c(C(F)(F)F)c(F)c2)C(=O)N2C[C@H](OCC)C[C@H]2C(=O)NC2(CCC2)C(=O)N(C)[C@@H](C2CCCC2)C(=O)N(C)[C@H](C(=O)N(C)C)CC(=O)N1C [PP1454] | A (a compound having 10 or more and less than 20 is denoted as A) | A (a compound having 10 or more and less than 20 is denoted as A) |
| 0.12 | 90 | CCO[C@@H]1C[C@H]2C(=O)NC3(CCCC3)C(=O)N(C)[C@@H](C3CCCC3)C(=O)N(C)[C@H](C(=O)N(C)C)CC(=O)N(C)[C@@H](C)C(=O)N[C@@H]([C@@H](C)CC)C(=O)N(C)CC(=O)N(C)[C@H]3C/C=C\CCN(C3=O)[C@@H](CC3CCC(F)(F)CC3)C(=O)N(C)CC(=O)N[C@@H](CCc3cc(F)c(C(F)(F)F)c(F)c3)C(=O)N2C1 [PP1456] | A (a compound having 10 or more and less than 20 is denoted as A) | A (a compound having 10 or more and less than 20 is denoted as A) |
| 0.12 | 27.5 | CC[C@H](C)[C@@H]1NC(=O)[C@H](CC)N(C)C(=O)C[C@@H](C(=O)N(C)C)N(C)C(=O)[C@H](C2CCCC2)N(C)C(=O)C2(CCC2)NC(=O)[C@@H]2CC(F)(F)CN2C(=O)[C@H](CCc2cc(F)c(C(F)(F)F)c(F)c2)NC(=O)CN(C)C(=O)[C@H](CC2CCCCC2)N2CC/C=C\C[C@@H](C2=O)N(C)C(=O)CN(C)C1=O [PP1462] | A (a compound having 10 or more and less than 20 is denoted as A) | A (a compound having 10 or more and less than 20 is denoted as A) |
| 0.13 | 44.5 | CCO[C@@H]1C[C@H]2C(=O)NC3(CCC3)C(=O)N(C)[C@@H](C3CCCC3)C(=O)N(C)[C@H](C(=O)N(C)C)CC(=O)N(C)[C@@H](CSC)C(=O)N[C@@H]([C@@H](C)CC)C(=O)N(C)CC(=O)N(C)[C@H]3C/C=C\CCN(C3=O)[C@@H](CC3CCCCC3)C(=O)N(C)CC(=O)N[C@@H](CCc3cc(F)c(C(F)(F)F)c(F)c3)C(=O)N2C1 [PP1463] | A (a compound having 10 or more and less than 20 is denoted as A) | A (a compound having 10 or more and less than 20 is denoted as A) |
| 0.15 | 32.3 | CCC[C@H]1C(=O)N[C@@H]([C@@H](C)CC)C(=O)N(C)CC(=O)N(C)[C@H]2C/C=C\CCN(C2=O)[C@@H](CC2CCCCC2)C(=O)N(C)CC(=O)N[C@@H](CCc2cc(F)c(C(F)(F)F)c(F)c2)C(=O)N2C[C@H](OCC)C[C@H]2C(=O)NC2(CCC2)C(=O)N(C)[C@@H](C2CCCC2)C(=O)N(C)[C@H](C(=O)N(C)C)CC(=O)N1C [PP1464] | A (a compound having 10 or more and less than 20 is denoted as A) | A (a compound having 10 or more and less than 20 is denoted as A) |
| 0.14 | 33.2 | CCO[C@@H]1C[C@H]2C(=O)NC3(CCC3)C(=O)N(C)[C@@H](C3CCCC3)C(=O)N(C)[C@H](C(=O)N(C)C)CC(=O)N(C)[C@@H](CC)C(=O)N[C@@H]([C@@H](C)CC)C(=O)N(C)CC(=O)N(C)[C@H]3C/C=C\CCN(C3=O)[C@@H](CC3CCCCC3)C(=O)N(C)CC(=O)N[C@@H](CCc3cc(F)c(C(F)(F)F)c(F)c3)C(=O)N2C1 [PP1466] | A (a compound having 10 or more and less than 20 is denoted as A) | A (a compound having 10 or more and less than 20 is denoted as A) |

More lines, now with the values behind:

| SMILES | Kd [1] [nM] | IC50 [4] [nM] | NRAS/KRAS (ratio of KD value for GDP-bound NRAS wild-type protein to KD value for KRAS) [2] | HRAS/KRAS (ratio of KD value for GDP-bound HRAS wild-type protein to KD value for KRAS) [3] |
| --- | --- | --- | --- | --- |
| CCO[C@@H]1C[C@H]2C(=O)NC3(CCC3)C(=O)N(C)[C@@H](C3CCCC3)C(=O)N(C)[C@H](C(=O)N3CCCC3)CC(=O)N(C)[C@@H](CC)C(=O)N[C@@H]([C@@H](C)CC)C(=O)N(C)CC(=O)N(C)[C@H]3C/C=C\CCN(C3=O)[C@@H](CC3CCC(F)(F)CC3)C(=O)N(C)CC(=O)N[C@@H](CCc3cc(F)c(C(F)(F)F)c(F)c3)C(=O)N2C1 [PP1442] | 0.13 | 48.3 | A (a compound having 10 or more and less than 20 is denoted as A) | A (a compound having 10 or more and less than 20 is denoted as A) |
| CC[C@H](C)[C@@H]1NC(=O)[C@H](CC)N(C)C(=O)C[C@@H](C(=O)N(C)C)N(C)C(=O)[C@H](C2CCCC2)N(C)C(=O)C2(CCC2)NC(=O)[C@@H]2C[C@@H](C(F)(F)F)CN2C(=O)[C@H](CCc2cc(F)c(C(F)(F)F)c(F)c2)NC(=O)CN(C)C(=O)[C@H](CC2CCC(F)(F)CC2)N2CC/C=C\C[C@@H](C2=O)N(C)C(=O)CN(C)C1=O [PP1451] | 0.14 | 61.1 | A (a compound having 10 or more and less than 20 is denoted as A) | A (a compound having 10 or more and less than 20 is denoted as A) |
| CC[C@H](C)[C@@H]1NC(=O)[C@H](CC)N(C)C(=O)C[C@@H](C(=O)N(C)C)N(C)C(=O)[C@H](C2CCCC2)N(C)C(=O)C2(CCC2)NC(=O)[C@@H]2C[C@H](C)CN2C(=O)[C@H](CCc2cc(F)c(C(F)(F)F)c(F)c2)NC(=O)CN(C)C(=O)[C@H](CC2CCC(F)(F)CC2)N2CC/C=C\C[C@@H](C2=O)N(C)C(=O)CN(C)C1=O [PP1457] | 0.15 | 30.4 | A (a compound having 10 or more and less than 20 is denoted as A) | A (a compound having 10 or more and less than 20 is denoted as A) |
| CCO[C@@H]1C[C@H]2C(=O)NC3(CCC3)C(=O)N(C)[C@@H](C3CCCC3)C(=O)N(C)[C@H](C(=O)N(C)C)CC(=O)N(C)[C@@H](CC(C)C)C(=O)N[C@@H]([C@@H](C)CC)C(=O)N(C)CC(=O)N(C)[C@H]3C/C=C\CCN(C3=O)[C@@H](Cc3ccc(F)cc3)C(=O)N(C)CC(=O)N[C@@H](CCc3cc(F)c(C(F)(F)F)c(F)c3)C(=O)N2C1 [PP1488] | 0.081 | 23.2 | A (a compound having 10 or more and less than 20 is denoted as A) | B (a compound having 3 or more and less than 10 is denoted as B) |
| CC[C@H](C)[C@@H]1NC(=O)[C@H](CC2CC2)N(C)C(=O)C[C@@H](C(=O)N(C)C)N(C)C(=O)[C@H](C2CCCC2)N(C)C(=O)C2(CCC2)NC(=O)[C@@H]2C[C@@H](F)CN2C(=O)[C@H](CCc2cc(F)c(C(F)(F)F)c(F)c2)NC(=O)CN(C)C(=O)[C@H](Cc2ccc(C(F)(F)F)cc2)N2CC/C=C\C[C@@H](C2=O)N(C)C(=O)CN(C)C1=O [PP1497] | 0.022 | 10.7 | A (a compound having 10 or more and less than 20 is denoted as A) | A (a compound having 10 or more and less than 20 is denoted as A) |
| CC[C@H](C)[C@@H]1NC(=O)[C@H](CC2CC2)N(C)C(=O)C[C@@H](C(=O)N(C)C)N(C)C(=O)[C@H](C2CCCC2)N(C)C(=O)C2(CCC2)NC(=O)[C@@H]2C[C@@H](C(F)(F)F)CN2C(=O)[C@H](CCc2cc(F)c(C(F)(F)F)c(F)c2)NC(=O)CN(C)C(=O)[C@H](Cc2ccc(C(F)(F)F)cc2)N2CC/C=C\C[C@@H](C2=O)N(C)C(=O)CN(C)C1=O [PP1498] | 0.069 | 10.3 | A (a compound having 10 or more and less than 20 is denoted as A) | A (a compound having 10 or more and less than 20 is denoted as A) |
| CC[C@H](C)[C@@H]1NC(=O)[C@H](CC2CC2)N(C)C(=O)C[C@@H](C(=O)N2CCCC2)N(C)C(=O)[C@H](C2CCCC2)N(C)C(=O)C2(CCC2)NC(=O)[C@@H]2C[C@H](C)CN2C(=O)[C@H](CCc2cc(F)c(C(F)(F)F)c(F)c2)NC(=O)CN(C)C(=O)[C@H](Cc2ccc(C(F)(F)F)cc2)N2CC/C=C\C[C@@H](C2=O)N(C)C(=O)CN(C)C1=O [PP1510] | 0.11 | 34.5 | AA (a compound having 20 or more is denoted as AA) | A (a compound having 10 or more and less than 20 is denoted as A) |
